Experimental data: ChEMBL document CHEMBL3885861, “Open TG-GATES”

Species: Rattus norvegicus
Assay: Open TG-GATES - Regimen: Single
Format: toxicity, organism-based, Sprague-Dawley
Set-up: regimen Single, gender Male, age 6 weeks
Details: in vivo, po, 0 mg/kg, route gavage, dose level Control; for APTT / Bas / Eos / Fbg / Hb / Ht / Lym / MCH / MCHC / MCV / Mono / Neu / PT / Plat / RBC / Ret / WBC: tissue Blood; for KIDNEY_L / KIDNEY_R / KIDNEY_TOTAL: tissue Kidney; for LIVER: tissue Liver; for A/G / ALP / ALT / AST / BUN / CRE / Ca / Cl / DBIL / GLC / IP / K / LDH / Na / PL / RALB / TBIL / TC / TG / TP / gamma-GTP: tissue Plasma

CN1C(C(=O)Nc2ccccn2)=C(O)c2sc(Cl)cc2S1(=O)=O [LORNOXICAM] showed a TERMINAL_BW (3 h) of 223 g, an APTT (3 h) of 20 s and a Bas (3 h) of 1%. The Eos (3 h) was 1.4%, the Fbg (3 h) was 213.2 mg/dL and the Hb (3 h) was 13.4 g/dL. The Ht (3 h) was 39.7%, the Lym (3 h) was 78.8% and the MCH (3 h) was 21 pg. For the same compound, the MCHC (3 h) was 33.8%, the MCV (3 h) was 62.2 fL and the Mono (3 h) was 2.8%. The Neu (3 h) was 16.4%, the PT (3 h) was 11.9 s and the Plat (3 h) was 135.7 x10_4/uL. The RBC (3 h) was 638 x10_4/ul, the Ret (3 h) was 6.8% and the WBC (3 h) was 93 x10_2/uL. For the same compound, the KIDNEY_L (3 h) was 1 g, the KIDNEY_R (3 h) was 1 g and the KIDNEY_TOTAL (3 h) was 2 g. It also gave an LIVER (3 h) of 10.1 g, an A/G (3 h) of 1.7 and an ALP (3 h) of 1010.4 IU/L. It also gave an ALT (3 h) of 36.2 IU/L, an AST (3 h) of 73 IU/L and a BUN (3 h) of 11.8 mg/dL. It also gave a CRE (3 h) of 0.4 mg/dL, a Ca (3 h) of 10.5 mg/dL and a Cl (3 h) of 103.4 meq/L. The DBIL (3 h) was 0.076 mg/dL, the GLC (3 h) was 197.2 mg/dL and the IP (3 h) was 8.6 mg/dL. It also gave a K (3 h) of 3.7 meq/L, an LDH (3 h) of 168 IU/L and a Na (3 h) of 141.4 meq/L. The PL (3 h) was 133.4 mg/dL, the RALB (3 h) was 3.5 g/dL and the TBIL (3 h) was 0.1 mg/dL. It also gave a TC (3 h) of 71.2 mg/dL, a TG (3 h) of 80 mg/dL and a TP (3 h) of 5.5 g/dL. It also gave a gamma-GTP (3 h) of 1.4 IU/L, a TERMINAL_BW (6 h) of 219.8 g and an APTT (6 h) of 19.8 s. It also gave a Bas (6 h) of 0.8%, an Eos (6 h) of 1% and a Fbg (6 h) of 221.2 mg/dL. It also gave a Hb (6 h) of 13.2 g/dL, a Ht (6 h) of 39.3% and a Lym (6 h) of 81.2%. It also gave an MCH (6 h) of 20.9 pg, an MCHC (6 h) of 33.6% and an MCV (6 h) of 62.1 fL. For the same compound, the Mono (6 h) was 2.6%, the Neu (6 h) was 14.2% and the PT (6 h) was 12 s. The Plat (6 h) was 119.7 x10_4/uL, the RBC (6 h) was 632.4 x10_4/ul and the Ret (6 h) was 7.2%. For the same compound, the WBC (6 h) was 109.1 x10_2/uL, the KIDNEY_L (6 h) was 0.9 g and the KIDNEY_R (6 h) was 1 g. For the same compound, the KIDNEY_TOTAL (6 h) was 1.9 g, the LIVER (6 h) was 9.6 g and the A/G (6 h) was 1.6. The ALP (6 h) was 765.4 IU/L, the ALT (6 h) was 33.4 IU/L and the AST (6 h) was 68.8 IU/L. For the same compound, the BUN (6 h) was 11 mg/dL, the CRE (6 h) was 0.4 mg/dL and the Ca (6 h) was 10.4 mg/dL. For the same compound, the Cl (6 h) was 103 meq/L, the DBIL (6 h) was 0.066 mg/dL and the GLC (6 h) was 196.8 mg/dL. For the same compound, the IP (6 h) was 9.1 mg/dL, the K (6 h) was 3.9 meq/L and the LDH (6 h) was 209.2 IU/L. It also gave a Na (6 h) of 140.8 meq/L, a PL (6 h) of 146 mg/dL and an RALB (6 h) of 3.4 g/dL. For the same compound, the TBIL (6 h) was 0.1 mg/dL, the TC (6 h) was 84.8 mg/dL and the TG (6 h) was 64.8 mg/dL. The TP (6 h) was 5.6 g/dL, the gamma-GTP (6 h) was 0.8 IU/L and the TERMINAL_BW (9 h) was 218.6 g. For the same compound, the APTT (9 h) was 20.3 s, the Bas (9 h) was 0.8% and the Eos (9 h) was 0.8%. The Fbg (9 h) was 230.6 mg/dL, the Hb (9 h) was 13.3 g/dL and the Ht (9 h) was 39.8%. It also gave a Lym (9 h) of 74.4%, an MCH (9 h) of 20.9 pg and an MCHC (9 h) of 33.4%. It also gave an MCV (9 h) of 62.7 fL, a Mono (9 h) of 3.2% and a Neu (9 h) of 20.4%. For the same compound, the PT (9 h) was 12.5 s, the Plat (9 h) was 119.2 x10_4/uL and the RBC (9 h) was 634.2 x10_4/ul. The Ret (9 h) was 7.6%, the WBC (9 h) was 126.9 x10_2/uL and the KIDNEY_L (9 h) was 1 g. For the same compound, the KIDNEY_R (9 h) was 1 g, the KIDNEY_TOTAL (9 h) was 1.9 g and the LIVER (9 h) was 9.3 g. It also gave an A/G (9 h) of 1.7, an ALP (9 h) of 766.8 IU/L and an ALT (9 h) of 33.2 IU/L. It also gave an AST (9 h) of 65.4 IU/L, a BUN (9 h) of 9.8 mg/dL and a CRE (9 h) of 0.3 mg/dL. The Ca (9 h) was 10.5 mg/dL, the Cl (9 h) was 103.6 meq/L and the DBIL (9 h) was 0.076 mg/dL. For the same compound, the GLC (9 h) was 197.8 mg/dL, the IP (9 h) was 9.6 mg/dL and the K (9 h) was 3.8 meq/L. For the same compound, the LDH (9 h) was 162.2 IU/L, the Na (9 h) was 142.2 meq/L and the PL (9 h) was 136.8 mg/dL. It also gave an RALB (9 h) of 3.5 g/dL, a TBIL (9 h) of 0.1 mg/dL and a TC (9 h) of 75.2 mg/dL. For the same compound, the TG (9 h) was 60.6 mg/dL, the TP (9 h) was 5.6 g/dL and the gamma-GTP (9 h) was 1.2 IU/L. For the same compound, the TERMINAL_BW (24 h) was 238.4 g, the APTT (24 h) was 19.9 s and the Bas (24 h) was 0.2%. The Eos (24 h) was 1%, the Fbg (24 h) was 225.8 mg/dL and the Hb (24 h) was 13.5 g/dL. For the same compound, the Ht (24 h) was 40.7%, the Lym (24 h) was 80% and the MCH (24 h) was 20.9 pg. It also gave an MCHC (24 h) of 33.3%, an MCV (24 h) of 62.6 fL and a Mono (24 h) of 3.2%. It also gave a Neu (24 h) of 15.2%, a PT (24 h) of 11.6 s and a Plat (24 h) of 133.9 x10_4/uL. It also gave an RBC (24 h) of 649.4 x10_4/ul, a Ret (24 h) of 6.8% and a WBC (24 h) of 101.7 x10_2/uL. It also gave a KIDNEY_L (24 h) of 1 g, a KIDNEY_R (24 h) of 1 g and a KIDNEY_TOTAL (24 h) of 2 g. For the same compound, the LIVER (24 h) was 11.3 g, the A/G (24 h) was 1.6 and the ALP (24 h) was 874.6 IU/L. The ALT (24 h) was 35.2 IU/L, the AST (24 h) was 65.8 IU/L and the BUN (24 h) was 14.8 mg/dL. The CRE (24 h) was 0.4 mg/dL, the Ca (24 h) was 10.8 mg/dL and the Cl (24 h) was 103.8 meq/L. The DBIL (24 h) was 0.1 mg/dL, the GLC (24 h) was 218 mg/dL and the IP (24 h) was 7.3 mg/dL. For the same compound, the K (24 h) was 4 meq/L, the LDH (24 h) was 177.6 IU/L and the Na (24 h) was 141.4 meq/L. The PL (24 h) was 138.4 mg/dL, the RALB (24 h) was 3.5 g/dL and the TBIL (24 h) was 0.2 mg/dL. The TC (24 h) was 69.2 mg/dL, the TG (24 h) was 101.2 mg/dL and the TP (24 h) was 5.6 g/dL. The gamma-GTP (24 h) was 1 IU/L.
